Molecules are shown by their SMILES. Entries after “also recorded” stand apart in the source; their conditions may differ. Read-outs that look alike come from different tables or passages of the source.

The source of these data is US20200383906A1 (Evestra, Inc., priority 2019, published 2020).

The conditions of data set [1]: human, cited from earlier work.
The conditions of data set [2]: young women, 2.0 and 4.0 mg orally; cited from earlier work.
The next data set has as its system ovulation. In words: Clinical study of vaginal rings: ovulation inhibition, follicular maturation. The data set is classed as in vivo, women. The following applies: used release rate of estriol alone. The method, then:
Testing of three vaginal ring prototypes (Device 1, Device 2, and Device 3, described above) in 12 women as preformed. The expected average release rate per day of each device is described in Table 2. Vaginal ring (VR) insertion was performed after pill cycle completion and menstrual bleeding. Observation of a VR over a period of 21 days. Follow-up after removal of the VR. All VR variants tested inhibit ovulation. Ovulation inhibition persisted for more than 7 days after removal of the rings. Signs of follicular maturation at the start of treatment (higher oestradiol levels) disappear during treatment. The effect reflects inhibition of follicular maturation. For the most part, there were no bleeding events during treatment at all and, where they did occur, only to a very small extent (“spotting”). Withdrawal bleeding was observed only after the highest trimegestone dosage.
The course of the estradiol levels in the circulation reflects follicular maturation in the ovary. FIG. 5 depicts the individual serum concentrations of estradiol during single vaginal application of Device 3. […] After removal of the vaginal ring, the estradiol values increase starting from baseline. This increase reflects follicular maturation. […] FIG. 6 depicts the individual serum concentrations of progesterone during single vaginal application of Device 3. […]

A further data set deals with ovine genital organs. In words: Experiments in sheep: estrogenic effect of estriol under trimegestone. It counts as in vivo. As to conditions: on trimegestone. The source says:
This estrogenic effect in the genital tract in the presence of a progestogen leads to prevention of spotting and intermenstrual bleeding in humans. Such bleedings on the “pill” are an expression of an endometrial estrogen deficiency.

The subject of another data set is ovariectomized rodents. The following applies: parenteral administration; cited from earlier work.
In the next data set the target is estrogen receptor ERß (Homo sapiens, UniProt Q92731). The following applies: cited from earlier work.
Another data set relates to SHBG. As to conditions: women, entire range of tested doses; cited from earlier work.

Sequence of estrogen receptor ERß (Q92731 whole entry): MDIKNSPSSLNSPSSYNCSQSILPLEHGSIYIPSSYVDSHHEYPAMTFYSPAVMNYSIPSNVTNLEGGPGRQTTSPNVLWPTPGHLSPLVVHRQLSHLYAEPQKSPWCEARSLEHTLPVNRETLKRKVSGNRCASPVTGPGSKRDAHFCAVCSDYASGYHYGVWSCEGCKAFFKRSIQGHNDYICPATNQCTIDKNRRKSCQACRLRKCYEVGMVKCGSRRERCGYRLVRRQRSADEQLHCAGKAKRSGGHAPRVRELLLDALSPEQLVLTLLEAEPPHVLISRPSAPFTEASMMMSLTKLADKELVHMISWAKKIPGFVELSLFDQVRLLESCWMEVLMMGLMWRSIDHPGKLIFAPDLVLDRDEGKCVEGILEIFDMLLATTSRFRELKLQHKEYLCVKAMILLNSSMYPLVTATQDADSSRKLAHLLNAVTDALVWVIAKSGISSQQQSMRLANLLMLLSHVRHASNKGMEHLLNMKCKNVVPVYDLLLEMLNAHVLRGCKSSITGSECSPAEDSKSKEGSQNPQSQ

As to `C#C[C@]1(O)CC[C@H]2[C@@H]3CCc4cc(O)ccc4[C@H]3CC[C@@]21C` [EE, 17α-ethinyl estradiol], the Oral bioavailability result in data set [1] (oral vs intravenous) is “about 40%”. Also, the First pass effect in data set [1] (oral) is given as 60%.
In the case of `C[C@]12CC[C@@H]3c4ccc(O)cc4CC[C@H]3[C@@H]1CC[C@@H]2O` [Estradiol-17ß], the Oral bioavailability in data set [2] was 4.9+/−5%.
For the compound `C[C@]12CC[C@@H]3c4ccc(O)cc4CC[C@H]3[C@@H]1C[C@@H](O)[C@@H]2O` [estriol], the “Levels of FSH and LH” value in the data set on ovulation was “decreased”. In the data set with ovine genital organs, the “Estrogenic effect of estriol in the genital tract in the presence of trimegestone” value is reported as “is not inhibited; also recorded: are not attenuated”. Moreover, the “Estrogenic potency compared with estradiol” value with ovariectomized rodents is “about factor ten weaker”. For the same compound, the “Binding with ERß compared with estradiol” value on estrogen receptor ERß is “weaker and less stable binding”. For the same compound, the “Changes in surrogate parameter SHBG” value in the data set with SHBG is “no relevant changes were seen”.
